Laboratory results published in PMC12156367, “Synthesis and Biological Evaluation of Seco-Coumarin/Furoxan Hybrids as Potent Anti-Tumor Agents to Overcome Multidrug Resistance via Multiple Mechanisms” (Molecules, 2025).
Like-named read-outs stand apart in the source and are kept apart here.

Key:
[1] = system: MCF-7/ADR (doxorubicin-resistant human breast cancer cell line); conditions: earlier compounds, ref 19 (4A93), 20 (6C44), cited from earlier work; for IC50: read-out: IC50 MCF-7/ADR (Figure 2)
[2] = Solubility experiment (HPLC) in water/acetonitrile; type: physicochemical; conditions: in water/acetonitrile (table title)
Experimental: Wavelength: 254 nm; flow rate: 1.0 mL/min; column temperature: 25 °C. Mobile phase: Phase A: water, Phase B: acetonitrile (Table 5).
Compounds were dissolved in chromatographic-grade acetonitrile and diluted to concentrations of 200, 100, 50, 25, 12.5, and 6.25 µg/mL. A standard curve was plotted using the peak area under the curve (AUC) versus concentration. […] The supernatant was filtered through an ultrafiltration membrane and then subjected to HPLC analysis. The solubility of the target compound was determined by substituting the AUC of the test compound into the standard curve. Each measurement was performed in triplicate.

[3] = system: human normal mammary epithelial cell lines MCF-10A; experiment: Cytotoxicity in normal mammary epithelial cells (MTT); type: cell-based; conditions: normal mammary epithelial cell line
Description: The MDA-MB-468 cell line was procured from the Cell Bank of the Chinese Academy of Sciences. The MCF-7, MCF-7/ADR, MCF-10A, and MDA-MB-231 cell lines were kindly provided by Professor Xianyi Sha (Fudan University, Shanghai, China). The HUVEC cells were kindly provided by Associate Professor Hulie Zeng (Fudan University, Shanghai, China). The MDA-MB-468, MDA-MB-231, MCF-7, MCF-10A, and HUVEC cells were cultivated in DMEM (Service Biotechnology, China) supplemented with 10% FBS (Capricorn Scientific, Germany) and 1% penicillin-streptomycin (Meilunbio, Dalian, China). For the MCF-7/ADR cells, they were cultured in RPMI-1640 (Service Biotechnology, Wuhan, China), containing 10% FBS and 1% penicillin-streptomycin. […]
(§1) Following harvest during logarithmic growth, cells were plated in 96-well culture plates at an initial density of 5000 cells per well. […] The OD value at 570nm was measured using a microplate reader (Thermo Fisher, Waltham, MA, USA). Cell proliferation inhibition was determined using the following formula:Inhibition (%) = [(ODDMSO − ODcompd.)/(ODDMSO − ODblank)] × 100
GraphPad Prism software 9 was used to calculate the IC50 values. […] For instance, in the cell experiment, we recorded the cell viability values at different drug concentrations. […]

[4] = system: MCF-7/ADR (doxorubicin-resistant human breast cancer cell line); experiment: In vitro antiproliferative assay (MTT, 48 h), MCF-7/ADR; type: cell-based; conditions: for Selectivity Ratio IC50(MCF-7)/ IC50(MCF-7/ADR): collateral sensitivity
Description: (§2) The MDA-MB-468 cell line was procured from the Cell Bank of the Chinese Academy of Sciences. The MCF-7, MCF-7/ADR, MCF-10A, and MDA-MB-231 cell lines were kindly provided by Professor Xianyi Sha (Fudan University, Shanghai, China). The HUVEC cells were kindly provided by Associate Professor Hulie Zeng (Fudan University, Shanghai, China). The MDA-MB-468, MDA-MB-231, MCF-7, MCF-10A, and HUVEC cells were cultivated in DMEM (Service Biotechnology, China) supplemented with 10% FBS (Capricorn Scientific, Germany) and 1% penicillin-streptomycin (Meilunbio, Dalian, China). For the MCF-7/ADR cells, they were cultured in RPMI-1640 (Service Biotechnology, Wuhan, China), containing 10% FBS and 1% penicillin-streptomycin. Additionally, 500 ng/mL of doxorubicin (Sigma-Aldrich, Saint Louis, MO, USA) was incorporated into the RPMI-1640 culture medium to keep drug resistance. All cell lines were cultured in a humidified incubator at 37 °C with a 5% CO2 atmosphere.
Following harvest during logarithmic growth, cells were plated in 96-well culture plates at an initial density of 5000 cells per well. Incubate the plate overnight at 37 °C to allow the cells to adhere. Following the overnight incubation, introduce the compound at the predetermined concentration into each well, and then return the plate to the incubator for an additional 48 h culture period. After the 48 h treatment, carefully aspirate the drug-containing medium from each well. Subsequently, add 150 μL of 0.5 mg/mL MTT (Beyotime, China) solution to each well. Protect the plate from light and incubate it at 37 °C for 4 h to allow the formation of formazan crystals. Finally, add 150 μL of DMSO (Sinopharm, China) to each well and gently mix to ensure complete dissolution of the formazan crystals. The OD value at 570nm was measured using a microplate reader (Thermo Fisher, Waltham, MA, USA). Cell proliferation inhibition was determined using the following formula:Inhibition (%) = [(ODDMSO − ODcompd.)/(ODDMSO − ODblank)] × 100
GraphPad Prism software 9 was used to calculate the IC50 values. The specific calculation process is as follows: Firstly, we input the experimental data into Prism. The data include the concentrations of the experimental compounds and the corresponding biological response values. For instance, in the cell experiment, we recorded the cell viability values at different drug concentrations. Subsequently, we select the option of “Dose–Response–Nonlinear Regression” in the “Analyze” menu for curve fitting. Generally speaking, we use the model of “[Inhibitor] vs. normalized response—Variable slope”. The Prism software fits the data through the nonlinear least squares method and finds the parameter values that can minimize the difference between the model’s predicted values and the actual data. After completing the curve fitting, the software will directly provide the estimated values and confidence intervals of the IC50 value and other relevant parameters. Meanwhile, it will also offer goodness-of-fit indices, such as the correlation coefficient, to evaluate the quality of the fitting. Through the above method, we can accurately calculate the IC50 value, thereby assessing the intensity of the inhibitory or activating effect of the compound on the biological system.

[5] = system: HUVEC (human umbilical vein endothelial cell lines); experiment: Cytotoxicity screen in HUVEC; type: cell-based; conditions: 500 nM concentration
Description: as §2
as §1, with “well. Incubate the plate overnight at 37 °C to allow the cells to adhere.” for “well.”, “100 […]” for “100”

SMILES | IC50 [1] [nM] | Solubility [2] [%] | Selectivity Ratio IC50(MCF-7)/ IC50(MCF-7/ADR) [4] | also measured
Cc1c(Cc2ccc(C(F)(F)F)cc2)c(=O)oc2cc(OCCOc3no[n+]([O-])c3S(=O)(=O)c3ccccc3)ccc12 [Compound 4A93] | 5 | – | – | –
COc1cc(OCCOc2no[n+]([O-])c2S(=O)(=O)c2ccccc2)ccc1C(=O)/C=C/c1ccccc1 [Compound 6C44] | 4.2 | – | – | IC50(MCF-7)/IC50(MCF-7/ADR) (Figure 2) [1]: 199.2
COc1ccc(/C=C/C(=O)c2ccc(OCCCOc3no[n+]([O-])c3S(=O)(=O)c3ccccc3)cc2OC)cc1 [Compound 6d, (E)-4-(3-(3-methoxy-4-(3-(4-methoxyphenyl)acryloyl)phenoxy)propoxy)-3-(phenylsulfonyl)-1,2,5-oxadiazole 2-oxide] | – | 24.3 ± 2.5 | 91.1 | IC50 [3]: 13.4 µM
COc1cc(OCCOc2no[n+]([O-])c2S(=O)(=O)c2ccccc2)ccc1C(C)=O [Compound 12a, 4-(2-(4-acetyl-3-methoxyphenoxy)ethoxy)-3-(phenylsulfonyl)-1,2,5-oxadiazole 2-oxide] | – | 67.9 ± 7.8 | 189.3 | cell survival probability in HUVEC [5]: over 90%
COc1cc(OCCOc2no[n+]([O-])c2S(=O)(=O)c2ccccc2)ccc1C(=O)NCc1ccc(C#N)cc1 [Compound 18e, 4-(2-(4-((4-cyanobenzyl)carbamoyl)-3-methoxyphenoxy)ethoxy)-3-(phenylsulfonyl)-1,2,5-oxadiazole 2-oxide] | – | 44.7 ± 10.2 | 235.0 | IC50 ([4]; Homo sapiens, NCI/ADR-RES, MTT, 48 h, mean of three determinations): 19.9 nM
